Laboratory results reported in PMC9120017, “Inhibition mechanism of the chloride channel TMEM16A by the pore blocker 1PBC” (Nature Communications, 2022).
Where two headings read alike, the source gives them in different places.

Target: T1, mouse TMEM16A mutant T518A (Mus musculus, UniProt Q8BHY3, T518A)
T1 construct: expressed in transfected cells; host or cells: HEK293T
T1 sequence (Q8BHY3 1-960 T518A): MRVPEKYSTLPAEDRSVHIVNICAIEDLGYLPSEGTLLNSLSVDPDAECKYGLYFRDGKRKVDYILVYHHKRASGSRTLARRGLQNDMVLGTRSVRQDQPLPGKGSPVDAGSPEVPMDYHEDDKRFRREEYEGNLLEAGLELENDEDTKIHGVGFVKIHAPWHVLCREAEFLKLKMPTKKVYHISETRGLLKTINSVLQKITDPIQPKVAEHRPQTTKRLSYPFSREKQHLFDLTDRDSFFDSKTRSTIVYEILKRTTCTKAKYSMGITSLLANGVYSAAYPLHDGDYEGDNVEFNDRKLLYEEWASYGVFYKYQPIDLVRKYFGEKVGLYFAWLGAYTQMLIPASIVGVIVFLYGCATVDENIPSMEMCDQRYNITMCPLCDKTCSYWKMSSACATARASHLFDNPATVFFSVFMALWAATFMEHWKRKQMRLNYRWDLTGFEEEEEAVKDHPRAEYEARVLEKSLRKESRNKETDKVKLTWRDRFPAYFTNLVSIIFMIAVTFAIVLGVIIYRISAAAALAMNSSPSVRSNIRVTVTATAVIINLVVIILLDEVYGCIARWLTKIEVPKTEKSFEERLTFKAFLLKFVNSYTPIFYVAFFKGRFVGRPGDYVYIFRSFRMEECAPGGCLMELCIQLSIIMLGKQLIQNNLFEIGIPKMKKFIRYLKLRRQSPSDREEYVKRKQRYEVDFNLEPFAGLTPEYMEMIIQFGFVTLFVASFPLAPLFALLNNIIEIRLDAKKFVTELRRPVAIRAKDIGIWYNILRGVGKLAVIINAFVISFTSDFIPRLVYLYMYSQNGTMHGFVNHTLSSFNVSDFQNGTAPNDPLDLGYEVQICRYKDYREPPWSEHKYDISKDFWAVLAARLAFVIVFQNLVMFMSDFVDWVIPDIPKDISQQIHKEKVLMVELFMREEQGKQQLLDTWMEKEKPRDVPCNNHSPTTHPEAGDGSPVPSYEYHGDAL
Assay: Inside-out patch recording of 1PBC block, mutant T518A
Format: cell-based
Settings: for remaining activity at 1 µM: 1PBC 1; for remaining activity at 1 µM / remaining activity at 3 µM / remaining activity at 10 µM / remaining activity at 30 µM / remaining activity at 100 µM: read-out: fraction of unblocked current; for remaining activity at 3 µM: 1PBC 3; for remaining activity at 10 µM: 1PBC 10; for remaining activity at 30 µM: 1PBC 30; for remaining activity at 100 µM: 1PBC 100
Description: HEK293T cells (ATCC CRL-1573) were maintained in Dulbecco’s modified Eagle’s medium (DMEM; Sigma-Aldrich) supplemented with 10 U ml^−1 penicillin, 0.1 mg ml^−1 streptomycin (Sigma-Aldrich), 2 mM L-glutamine (Sigma-Aldrich), and 10% FBS (Sigma-Aldrich) in a humidified atmosphere containing 5% CO2 at 37 °C. HEK293S GnTI^− cells (ATCC CRL-3022) were maintained in HyClone HyCell TransFx-H medium (GE Healthcare) supplemented with 10 U ml^−1 penicillin, 0.1 mg ml^−1 streptomycin, 4 mM L-glutamine, 0.15% poloxamer 188 (Sigma-Aldrich), and 1% FBS in an atmosphere containing 5% CO2 at 185 rpm at 37 °C. The ac splice variant of mouse TMEM16A (UniProt ID: Q8BHY3), mouse TMEM16B (UniProt ID: Q8CFW1), or mouse TMEM16F (UniProt ID: Q6P9J9) bearing a 3C cleavage site, a Venus YFP, a Myc tag, and a Streptavidin-binding peptide (SBP) downstream of the open reading frame in a modified pcDNA3.1 vector (Invitrogen) were used as described previously[21],[31]. Mutations were introduced using a modified QuikChange method[58] and were verified by sequencing.
HEK293T cells were transfected with 3–4 μg DNA per 6 cm Petri dish using the calcium phosphate co-precipitation method and were used within 24–96 h after transfection. Recordings were performed on inside-out patches excised from HEK293T cells expressing the construct of interest. Patch pipettes were pulled from borosilicate glass capillaries (O.D. 1.5 mm, I.D. 0.86 mm, Sutter Instrument) and were fire-polished with a microforge (Narishige) before use. Pipette resistance was typically 3–8 MΩ when filled with the recording solutions detailed below. Seal resistance was typically 4 GΩ or higher. Voltage-clamp recordings were made using Axopatch 200B, Digidata 1550, and Clampex 10.7 (Molecular Devices). Analog signals were filtered with the in-built 4-pole Bessel filter at 10 kHz and were digitized at 20 kHz. Solution exchange was achieved using a gravity-fed system through a theta glass pipette mounted on an ultra-fast piezo-driven stepper (Siskiyou). […] All recordings were performed at 20 °C.
A symmetrical ionic condition was used throughout. Stock solution with Ca^2+-EGTA contained 150 mM NaCl, 5.99 mM Ca(OH)2, 5 mM EGTA, and 10 mM HEPES at pH 7.40. Stock solution with EGTA contained 150 mM NaCl, 5 mM EGTA, and 10 mM HEPES at pH 7.40. Free Ca^2+ concentrations were adjusted by mixing the stock solutions at the required ratios calculated using the WEBMAXC program (http://web.stanford.edu/~cpatton/webmaxcS.htm). Patch pipettes were filled with the stock solution with Ca^2+-EGTA, which has a free Ca^2+ concentration of 1 mM. 1PBC (ChemBridge) stock was reconstituted in anhydrous DMSO (Sigma-Aldrich) at 100 mM and stored at −20 °C. Working solutions with 1PBC were prepared by serial dilution. Unless otherwise stated, experiments were performed at a saturating Ca^2+ concentration as shown in Supplementary Table 1 and the primary data were corrected for current rundown as described previously[21],[25].
Concentration-response relations, obtained from the ratio of the I-V plots before and after the application of the blocker, were fitted to the Hill equation,1 I/Imax=1/1+IC50/[blocker]^h where I/Imax is the normalized current responses, IC50 defines the concentration at which inhibition is at its half-maximum, and h is the Hill coefficient.

Molecule `N#Cc1c(C(F)(F)F)cc(O)n2c1nc1ccccc12` [1PBC] has an IC50 (0 mV, 2 µM Ca2+) of 5.67 µM, a remaining activity at 1 µM (0 mV) of 82.6% and a remaining activity at 1 µM (20 mV) of 78.8%. The remaining activity at 1 µM (40 mV) was 75.1%, the remaining activity at 1 µM (60 mV) was 71.9% and the remaining activity at 1 µM (80 mV) was 70.2%. It also gave a remaining activity at 1 µM (100 mV) of 70.4%, a remaining activity at 1 µM (120 mV) of 72.2% and a remaining activity at 1 µM (140 mV) of 76.4%. The remaining activity at 1 µM (-20 mV) was 86.3%, the remaining activity at 1 µM (-40 mV) was 90% and the remaining activity at 1 µM (-60 mV) was 91.9%. The remaining activity at 1 µM (-80 mV) was 93.5%, the remaining activity at 1 µM (-100 mV) was 95.1% and the remaining activity at 1 µM (-120 mV) was 96.6%. The remaining activity at 1 µM (-140 mV) was 98%, the remaining activity at 3 µM (0 mV) was 65.6% and the remaining activity at 3 µM (20 mV) was 60.1%. The remaining activity at 3 µM (40 mV) was 54.5%, the remaining activity at 3 µM (60 mV) was 51% and the remaining activity at 3 µM (80 mV) was 47.8%. For the same molecule, the remaining activity at 3 µM (100 mV) was 46.3%, the remaining activity at 3 µM (120 mV) was 47.6% and the remaining activity at 3 µM (140 mV) was 50.5%. It also gave a remaining activity at 3 µM (-20 mV) of 71.2%, a remaining activity at 3 µM (-40 mV) of 76.7% and a remaining activity at 3 µM (-60 mV) of 81.4%. The remaining activity at 3 µM (-80 mV) was 84.1%, the remaining activity at 3 µM (-100 mV) was 87.3% and the remaining activity at 3 µM (-120 mV) was 90.5%. The remaining activity at 3 µM (-140 mV) was 92.2%, the remaining activity at 10 µM (0 mV) was 36.7% and the remaining activity at 10 µM (20 mV) was 31%. The remaining activity at 10 µM (40 mV) was 26.8%, the remaining activity at 10 µM (60 mV) was 24% and the remaining activity at 10 µM (80 mV) was 22.2%. It also gave a remaining activity at 10 µM (100 mV) of 21.1%, a remaining activity at 10 µM (120 mV) of 21.2% and a remaining activity at 10 µM (140 mV) of 22.5%. It also gave a remaining activity at 10 µM (-20 mV) of 42.4%, a remaining activity at 10 µM (-40 mV) of 48.9% and a remaining activity at 10 µM (-60 mV) of 54.9%. It also gave a remaining activity at 10 µM (-80 mV) of 59.5%, a remaining activity at 10 µM (-100 mV) of 64.7% and a remaining activity at 10 µM (-120 mV) of 68.5%. For the same molecule, the remaining activity at 10 µM (-140 mV) was 71.3%, the remaining activity at 30 µM (0 mV) was 16.5% and the remaining activity at 30 µM (20 mV) was 13.3%. It also gave a remaining activity at 30 µM (40 mV) of 11.5%, a remaining activity at 30 µM (60 mV) of 10.1% and a remaining activity at 30 µM (80 mV) of 9.34%. For the same molecule, the remaining activity at 30 µM (100 mV) was 8.78%, the remaining activity at 30 µM (120 mV) was 9.07% and the remaining activity at 30 µM (140 mV) was 9.98%. For the same molecule, the remaining activity at 30 µM (-20 mV) was 19.7%, the remaining activity at 30 µM (-40 mV) was 23% and the remaining activity at 30 µM (-60 mV) was 27.8%. It also gave a remaining activity at 30 µM (-80 mV) of 31.9%, a remaining activity at 30 µM (-100 mV) of 35.9% and a remaining activity at 30 µM (-120 mV) of 39.5%. The remaining activity at 30 µM (-140 mV) was 43.5%, the remaining activity at 100 µM (0 mV) was 6.52% and the remaining activity at 100 µM (20 mV) was 4.86%. The remaining activity at 100 µM (40 mV) was 3.97%, the remaining activity at 100 µM (60 mV) was 3.5% and the remaining activity at 100 µM (80 mV) was 3.13%. It also gave a remaining activity at 100 µM (100 mV) of 2.74%, a remaining activity at 100 µM (120 mV) of 2.48% and a remaining activity at 100 µM (140 mV) of 2.4%. The remaining activity at 100 µM (-20 mV) was 8.19%, the remaining activity at 100 µM (-40 mV) was 9.29% and the remaining activity at 100 µM (-60 mV) was 11.5%. For the same molecule, the remaining activity at 100 µM (-80 mV) was 13.7%, the remaining activity at 100 µM (-100 mV) was 16.6% and the remaining activity at 100 µM (-120 mV) was 18.8%. For the same molecule, the remaining activity at 100 µM (-140 mV) was 21.5%, the IC50 (20 mV, 2 µM Ca2+) was 4.37 µM and the IC50 (40 mV, 2 µM Ca2+) was 3.5 µM. For the same molecule, the IC50 (60 mV, 2 µM Ca2+) was 2.99 µM, the “log-fold IC50 (change of mutant vs WT)” value (80 mV) was 0.1093 and the IC50 (80 mV, 2 µM Ca2+) was 2.66 µM. For the same molecule, the IC50 (100 mV, 2 µM Ca2+) was 2.55 µM, the IC50 (120 mV, 2 µM Ca2+) was 2.69 µM and the IC50 (140 mV, 2 µM Ca2+) was 3.08 µM. It also gave an IC50 (-20 mV, 2 µM Ca2+) of 7.32 µM, an IC50 (-40 mV, 2 µM Ca2+) of 9.5 µM and an IC50 (-60 mV, 2 µM Ca2+) of 12.2 µM. It also gave an IC50 (-80 mV, 2 µM Ca2+) of 14.7 µM, an IC50 (-100 mV, 2 µM Ca2+) of 18.1 µM and an IC50 (-120 mV, 2 µM Ca2+) of 21.5 µM. For the same molecule, the IC50 (-140 mV, 2 µM Ca2+) was 25.1 µM, the IC50 (T518A, V 0 mV) was 5.67 µM and the IC50 (T518A, V 20 mV) was 4.37 µM. For the same molecule, the IC50 (T518A, V 40 mV) was 3.5 µM, the IC50 (T518A, V 60 mV) was 2.99 µM and the IC50 (T518A, V 80 mV) was 2.66 µM. It also gave an IC50 (T518A, V 100 mV) of 2.55 µM, an IC50 (T518A, V 120 mV) of 2.69 µM and an IC50 (T518A, V 140 mV) of 3.08 µM. It also gave an IC50 (T518A, V -20 mV) of 7.32 µM, an IC50 (T518A, V -40 mV) of 9.5 µM and an IC50 (T518A, V -60 mV) of 12.2 µM. The IC50 (T518A, V -80 mV) was 14.7 µM, the IC50 (T518A, V -100 mV) was 18.1 µM and the IC50 (T518A, V -120 mV) was 21.5 µM. It also gave an IC50 (T518A, V -140 mV) of 25.1 µM.
